Measurements as given in US20250127162A1, “METHODS AND COMPOSITIONS FOR CONTROLLING PESTS IN RICE” (Globachem NV, priority 2022, published 2025).

Key:
Format in all cases: in vivo
Rice = assay: Phytotoxicity on rice (Example 1, Trials 1-2, Spain); design: key: % leaf necrosis/discoloration vs untreated plants; conditions: applications AB
Excerpt: “Low Phytotoxicity” of pelargonic acid, as used herein means that the toxic effect on plants is absent or at such a level so as not to adversely impact the growth and/or yield of the plant under a given set of test conditions, e.g., at a given concentration of pelargonic acid. Phytotoxic effects may be measured in a number of different ways, for example, according to the principals set out in OEPP/EPPO Bulletin (2014) 44 (3), 265-273 “PP 1/135 (4) Phytotoxicity assessment”. The phytotoxic effect on plants may be assessed visually as a function of the percentage of discoloration to the leaves and/or the appearance of necrosis. When the pelargonic acid compositions are applied to the foliage of the rice plants in accordance with the teachings herein, will typically result in a level of phytotoxicity of less than 20%, preferably less than 15%, more preferably less than 10% necrosis of the leaves in comparison to untreated plants. Preferred uses of the invention will typically result in phytotoxicity of 7% or less, whilst the most preferred uses will typically result in phytotoxicity of 5% or less. The above values are approximate as any purely visual assessment is likely to contain a degree of subjectivity.
(§1) All applications were made with an EC formulation containing 650 g/L of pelargonic acid (e.g., 685 g/L of 95% purity pelargonic acid), an anionic emulsifier and a branched fatty acid ester solvent.
(§2) Application A was made to the crops at the beginning of infestations; for these trials, Stage BBCH 59; Application B was made 14 days after Application A.
(§3) Trial 1 was conducted in Spain using a water volume of 300 L/ha of water per application unless otherwise indicated. Pest Incidence/Number of Insects (PESINC) and Pest Severity (PESSEV) as a Percent of Untreated Check (% UNCK) as well as Phytotoxicity were assessed at various treatment evaluation intervals.
(§4) Trial 2 was conducted in Spain using a water volume of 300 L/ha of water per application unless otherwise indicated. Pest Incidence/Number of Insects (PESINC) and Pest Severity (PESSEV) as a Percent of Untreated Check (% UNCK) as well as Phytotoxicity were assessed at various treatment evaluation intervals.

Diabrotica speciosa = assay: Potato field trials, control of Diabrotica speciosa (Example 3); conditions: 400 L water/ha, two applications 7 d apart, Actara 0.05 kg/ha
Excerpt: All applications were made with an EC formulation containing 650 g/L of pelargonic acid (e.g., 685 g/L of 95% purity pelargonic acid), an anionic emulsifier and a branched fatty acid ester solvent. […]. […] Potatoes—Diabrotica speciosa (Cucurbit beetle)-DIABSC [table] [table]

Chilo suppressalis = assay: Rice field trials, control of Chilo suppressalis (Example 1, Trials 1-2, Spain); conditions: Trial 1; 14 DAB; water volume 150 L/ha; applications AB
Experimental: as §1
Trials 1˜4 assessing the use of pelargonic acid for controlling Chilo suppressalis in rice were conducted in Spain and Thailand.
as §2, §3, §4

Q: What does the source list for CCCCCCCCC(=O)O [PA 650 g/ha, pelargonic acid]?
A: Phytotoxicity (Rice; Trial 1 (PESINC table), water volume 150 L/ha): 0; Phytotoxicity (Rice; Trial 1 (PESINC table), water volume 300 L/ha): 0; Phytotoxicity (Rice; Trial 1 (PESSEV table), water volume 150 L/ha): 0; Phytotoxicity (Rice; Trial 1 (PESSEV table), water volume 300 L/ha): 0; Phytotoxicity (Rice; Trial 2 (PESINC table), water volume 150 L/ha): 0; Phytotoxicity (Rice; Trial 2 (PESINC table), water volume 300 L/ha): 0; Phytotoxicity (Rice; Trial 2 (PESSEV table), water volume 150 L/ha): 0; Phytotoxicity (Rice; Trial 2 (PESSEV table), water volume 300 L/ha): 0; # Insects, % UNCK (Diabrotica speciosa; Trial 1, potato, 3 DAA): 67.74b % UNCK; # Insects, % UNCK (Diabrotica speciosa; Trial 1, potato, 3 DAA, listed as PA 487.5 g/ha): 48.39ab % UNCK; # Insects, % UNCK (Diabrotica speciosa; Trial 1, potato, 3 DAA, listed as PA 812.5 g/ha): 64.52b % UNCK; # Insects, % UNCK (Diabrotica speciosa; Trial 1, potato, 3 DAA, listed as PA 975 g/ha): 74.19b % UNCK; # Insects, % UNCK (Diabrotica speciosa; Trial 1, potato, 3 DAB): 84.21c % UNCK; # Insects, % UNCK (Diabrotica speciosa; Trial 1, potato, 3 DAB, listed as PA 487.5 g/ha): 34.2b1 % UNCK; # Insects, % UNCK (Diabrotica speciosa; Trial 1, potato, 3 DAB, listed as PA 812.5 g/ha): 86.84c % UNCK; # Insects, % UNCK (Diabrotica speciosa; Trial 1, potato, 3 DAB, listed as PA 975 g/ha): 84.21c % UNCK; # Insects, % UNCK (Diabrotica speciosa; Trial 1, potato, 7 DAA): 55.88abc % UNCK; # Insects, % UNCK (Diabrotica speciosa; Trial 1, potato, 7 DAA, listed as PA 487.5 g/ha): 29.4ab % UNCK; # Insects, % UNCK (Diabrotica speciosa; Trial 1, potato, 7 DAA, listed as PA 812.5 g/ha): 61.76bc % UNCK; # Insects, % UNCK (Diabrotica speciosa; Trial 1, potato, 7 DAA, listed as PA 975 g/ha): 64.71bc % UNCK; # Insects, % UNCK (Diabrotica speciosa; Trial 1, potato, 7 DAB): 81.08b % UNCK; # Insects, % UNCK (Diabrotica speciosa; Trial 1, potato, 7 DAB, listed as PA 487.5 g/ha): 54.05b % UNCK; # Insects, % UNCK (Diabrotica speciosa; Trial 1, potato, 7 DAB, listed as PA 812.5 g/ha): 83.78b % UNCK; # Insects, % UNCK (Diabrotica speciosa; Trial 1, potato, 7 DAB, listed as PA 975 g/ha): 83.78b % UNCK; # Insects, % UNCK (Diabrotica speciosa; Trial 2, potato, 3 DAA): 61.90bc % UNCK; # Insects, % UNCK (Diabrotica speciosa; Trial 2, potato, 3 DAA, listed as PA 487.5 g/ha): 38.10b % UNCK; # Insects, % UNCK (Diabrotica speciosa; Trial 2, potato, 3 DAA, listed as PA 812.5 g/ha): 80.95cd % UNCK; # Insects, % UNCK (Diabrotica speciosa; Trial 2, potato, 3 DAA, listed as PA 975 g/ha): 95.24de % UNCK; # Insects, % UNCK (Diabrotica speciosa; Trial 2, potato, 3 DAB): 25.00ab % UNCK; # Insects, % UNCK (Diabrotica speciosa; Trial 2, potato, 3 DAB, listed as PA 487.5 g/ha): 25.00ab % UNCK; # Insects, % UNCK (Diabrotica speciosa; Trial 2, potato, 3 DAB, listed as PA 812.5 g/ha): 28.57b % UNCK; # Insects, % UNCK (Diabrotica speciosa; Trial 2, potato, 3 DAB, listed as PA 975 g/ha): 53.57c % UNCK; # Insects, % UNCK (Diabrotica speciosa; Trial 2, potato, 7 DAA): 38.10b % UNCK; # Insects, % UNCK (Diabrotica speciosa; Trial 2, potato, 7 DAA, listed as PA 487.5 g/ha): 23.81ab % UNCK; # Insects, % UNCK (Diabrotica speciosa; Trial 2, potato, 7 DAA, listed as PA 812.5 g/ha): 85.71c % UNCK; # Insects, % UNCK (Diabrotica speciosa; Trial 2, potato, 7 DAA, listed as PA 975 g/ha): 100.00d % UNCK; # Insects, % UNCK (Diabrotica speciosa; Trial 2, potato, 7 DAB): 87.50bc % UNCK; # Insects, % UNCK (Diabrotica speciosa; Trial 2, potato, 7 DAB, listed as PA 487.5 g/ha): 70.83b % UNCK; # Insects, % UNCK (Diabrotica speciosa; Trial 2, potato, 7 DAB, listed as PA 812.5 g/ha): 91.67c % UNCK; # Insects, % UNCK (Diabrotica speciosa; Trial 2, potato, 7 DAB, listed as PA 975 g/ha): 100.00c % UNCK; # Insects, % UNCK (Diabrotica speciosa; Trial 2, potato, 10 DAB): 86.96bc % UNCK; # Insects, % UNCK (Diabrotica speciosa; Trial 2, potato, 10 DAB, listed as PA 487.5 g/ha): 68.57b % UNCK; # Insects, % UNCK (Diabrotica speciosa; Trial 2, potato, 10 DAB, listed as PA 812.5 g/ha): 91.30c % UNCK; # Insects, % UNCK (Diabrotica speciosa; Trial 2, potato, 10 DAB, listed as PA 975 g/ha): 100.00c % UNCK; PESINC (Pest Incidence/Number of Insects) % UNCK (% efficacy) (Chilo suppressalis): 75 % UNCK; PESSEV (Pest Severity) % UNCK (Chilo suppressalis): 75 % UNCK
